Values quoted from earlier work as cited in patent US5047425A, “Amine derivatives having cardiovascular activity” (Simes Societa Italiana Medicinali & Sintetici SpA, priority 1987, dated 1991).

Details: literature: McKenna 1966; Whitsitt 1967; cited from earlier work

## CC(C)NCC(O)COc1cccc2ccccc12 (centres unmarked) [Propranolol]
  cardiac output: depresses at the same time the cardiac output
  coronary flow: depresses at the same time the cardiac output and the coronary flow
